Common to all, as to format: cell-based
Assay [1] deals with UROtsa urinary epithelial cells. Nature of the assay: Cytotoxicity, MTT assay. The note with it: Epithelial cell, 48 h, read-out: IC50. How it is done: (§1) Two cell lines, including Raw 264.7 macrophages and the urinary epithelial cell line UROtsa obtained from the American Type Culture Collection (Rockville, MD, USA), were used. They were cultured in Dulbecco's modified Eagle's medium (DMEM), which was supplemented with 10% fetal bovine serum (FBS) and 1% penicillin, streptomycin, and fungizone (PSF). They were then grown at 37°C in a humidified environment containing 5% CO2.
(§2) The cytotoxicity of the selected synergistic combinations, as well as the individual constituents of combinations, against the abovementioned cell lines was performed by the MTT assay as previously described. Briefly, cells from each line were harvested in the logarithmic phase using trypsin (0.05% trypsin, 0.02% EDTA in PBS). Cell suspension was diluted with an appropriate growth medium to obtain a cell density of 10^4 cells/well. A 100 µL aliquot of each suspension was seeded into 96-well cell culture plates and incubated at 37°C in an atmosphere of 5% CO2 and 95% relative humidity. After 24 h of incubation, 100 µL of samples (ATBs and NPs) at concentrations varying from 0.01, 0.1, 1, 10, 100, and 1000, as well as the synergistic combinations (C1 to C5), was added to the wells containing the cells. Doxorubicin was used as a positive control. Appropriate controls with an equivalent concentration of DMSO were also included. Plates were incubated for 48 h, then the medium in each well was aspirated, and MTT solution (2 mg/mL in PBS) was diluted 1:10 with fresh medium and added to each well, and the plates were further incubated at 37°C for 4 h. Absorbance was measured on a BioTek microplate reader at 570 nm. The percentage of cell viability was calculated by comparing treated and untreated cells using the equation [39]:(3) cell viability %=ODtest/ODcontrol×100.
(§3) Then, the IC50 values of the samples having shown at least 50% inhibition were calculated by plotting the percentage of inhibition against the concentrations.
For orientation: Tetrazolium dyes change colour on reduction, which living cells bring about.

A further assay has as its system Raw 264.7 macrophages. Nature of the assay: Cytotoxicity, MTT assay. The note with it: Mus musculus, RAW264.7, 48 h, Raw 264.7, MTT, read-out: IC50. How it is done: as §1, §2, §3
Assay [2] deals with Staphylococcus epidermidis biofilm. The experiment in a line: Checkerboard combination assay, biofilm eradication. The note with it: S. epidermidis biofilm eradication; natural product alone; mean MBEC. As for the experimental part: (§4) The effect of the combination of ATBs with NPs on the preformed biofilm was evaluated by determining the FICI, as described above for biofilm formation, with slight modifications. After biofilm formation for 24 h, the plate was gently emptied and washed three times with PBS. Then, 50 µL of ATBs and 50 µL of NPs were introduced to the plate. The final concentration ranges from 0.0625 to 128 µg/mL and from 4 to 512 µg/mL for ATBs and NPs, respectively, and is incubated at 37°C for 24 h. After incubation, the medium was gently removed, and the plate was washed three times with PBS. At the end of the incubation time, the MTT reduction assay was performed, and the MBEC was determined. To assess the effect of the combination, the FICI was calculated and interpreted as described above.

Assay [3] concerns Staphylococcus saprophyticus biofilm. The assay is described as above. The note with it: S. saprophyticus biofilm eradication; natural product alone; mean MBEC. How it is done:
as §4

We go through two molecules from article PMC12339163, “Combining Plant Bioactives With Antibiotics for Enhanced Antibiofilm Activity Against Uropathogenic Staphylococcus spp. and Cytotoxicity Evaluation” (Advances in Pharmacological and Pharmaceutical Sciences, 2025).

One may read the IC50 as the concentration that inhibits the measured activity by half. For the molecule `COc1cccc2c1C(=O)c1c(O)c3c(c(O)c1C2=O)C[C@@](O)(C(=O)CO)C[C@@H]3O[C@H]1C[C@H](N)[C@H](O)[C@H](C)O1` [Doxorubicin, doxorubicin], the IC50 in assay [1] worked out at 1.58 µg/mL; with Raw 264.7 macrophages it was 1.26 µg/mL.

Turning to `O=c1c(O)c(-c2ccc(O)c(O)c2)oc2cc(O)cc(O)c12` [Quer], the “MBEC Alone NPs” value is 170.66 µg/mL in assay [2] and 256 µg/mL in assay [3].
